Measurements as given in ChEMBL document CHEMBL1130426, “Probing the mechanism of action and decomposition of amino acid phosphomonoester amidates of antiviral nucleoside prodrugs” (J Med Chem, 1997).

What was measured:
CCRF-CEM = assay: Cytotoxic concentration required to inhibit 50% […] in CEM cells; assay type: functional; conditions: Homo sapiens
[1] = Effective concentration required to inhibit 50% of HIV-1 in peripheral blood mononuclear cells (PBMC); assay type: functional, Homo sapiens
[2] = Cytotoxic concentration required to inhibit 50% […] in peripheral blood mononuclear cells (PBMC); assay type: functional; conditions: Homo sapiens

Structure (SMILES) | CC50 (CCRF-CEM) | EC50 [1] | CC50 [2]
COC(=O)[C@H](Cc1ccccc1)NP(=O)(OCCC#N)OCC1OC(n2cc(C)c(=O)[nH]c2=O)CC1N=[N+]=[N-] (stereo not given in full) | > 100 µM | > 1 µM | > 100 µM
COC(=O)[C@H](Cc1ccccc1)NP(=O)(OC)OCC1OC(n2cc(C)c(=O)[nH]c2=O)CC1N=[N+]=[N-] (stereo not given in full) | > 50 µM | 0.09 µM | > 100 µM
Cc1cn([C@H]2C[C@H](F)[C@@H](CO)O2)c(=O)[nH]c1=O [ALOVUDINE] | – | 0.001 µM | 8.6 µM
COC(=O)[C@H](Cc1ccccc1)NP(=O)(OC)OCC1OC(n2cc(C)c(=O)[nH]c2=O)CC1F (stereo not given in full) | > 100 µM | > 0.21 µM | > 100 µM
COC(=O)[C@H](Cc1c[nH]c2ccccc12)NP(=O)(O)OCC1OC(n2cc(C)c(=O)[nH]c2=O)CC1F (stereo not given in full) | 35.1 µM | 0.9 µM | > 100 µM
COC(=O)[C@H](Cc1c[nH]c2ccccc12)NP(=O)(OC)OCC1OC(n2cc(C)c(=O)[nH]c2=O)CC1F (stereo not given in full) | > 100 µM | 0.29 µM | > 100 µM
COC(=O)[C@H](Cc1ccccc1)NP(=O)(O)OCC1OC(n2cc(C)c(=O)[nH]c2=O)CC1N=[N+]=[N-] (stereo not given in full) | > 100 µM | 0.6 µM | > 100 µM
COC(=O)[C@H](Cc1c[nH]c2ccccc12)NP(=O)(O)OC[C@H]1O[C@@H](n2cc(C)c(=O)[nH]c2=O)C[C@@H]1N=[N+]=[N-] | > 100 µM | 0.01 µM | > 100 µM
Cc1cn([C@H]2C[C@H](N=[N+]=[N-])[C@@H](CO)O2)c(=O)[nH]c1=O [ZIDOVUDINE] | 14.3 µM | 0.08 µM | > 100 µM
COC(=O)[C@H](Cc1c[nH]c2ccccc12)NP(=O)(OC)OCC1OC(n2cc(C)c(=O)[nH]c2=O)CC1N=[N+]=[N-] (stereo not given in full) | > 50 µM | 0.3 µM | > 50 µM
COC(=O)[C@H](Cc1c[nH]c2ccccc12)NP(=O)(OCCC#N)OCC1OC(n2cc(C)c(=O)[nH]c2=O)CC1F (stereo not given in full) | > 95.6 µM | 0.2 µM | > 100 µM
COC(=O)[C@H](Cc1c[nH]c2ccccc12)NP(=O)(OCCC#N)OCC1OC(n2cc(C)c(=O)[nH]c2=O)CC1N=[N+]=[N-] (stereo not given in full) | > 100 µM | 0.4 µM | > 100 µM
